Reference: patent US6015820A, “4-Aryl-thio-pyridin-2(1H)-ones, medicines containing them and their uses in the treatment of illnesses linked to HIV” (priority 1995, dated 2000)
Read-outs that look alike come from different tables or passages of the source.

Columns and labels:
HIV-1 LAI = experiment: anti-HIV-1 activity: replication of HIV-1 LAI on CEM-SS cells; assay type: cell-based; settings: Table 2, HIV-1 LAI, CEM-SS cells; for IC50: Human immunodeficiency virus 1, 120 h, 5 days, read-out: IC50, anti-HIV-1 activity
Description: (§1) The CEM-SS and the HIV-1 resistant to Nevirapine (N119) carrying a point mutation at codon 181 of the IT, were supplied respectively by P. NARA and D. RICHMAN through the intermediary of the AIDS Research and Reference Reagent Program, Division of AIDS, NIAID, NIH (USA) (Catalogue references : No. 776 and No. 1392).
(§2) The virus production was measured by quantifying the activity of the inverse transcriptase associated with viral particles released into the culture supernatant. In short, cells were infected with 100 TCID50 for 30 minutes; after adsorption of the virus, unbound particles were removed by two washings and the cells were cultivated in the presence of different concentrations of the compounds tested for 5 days before determining the viral production. The concentration inhibiting 50% of the viral multiplication (IC50) came from the computer plot of the median effect of the dose effect results (Chou et al. Elsevier Science Publishers, Cambridge U.K. (1985), 19-28).

[1] = system: HIV-1 resistant to Nevirapine (N119); experiment: microbe, parasite or virus in culture; assay type: cell-based; settings: for IC50: Human immunodeficiency virus 1, CEM-SS, read-out: IC50, strain resistant to Nevirapine; for SI (selectivity index): Table 3, strain resistant to Nevirapine
Description: as §1, with “The effects of the compounds were evaluated on the replication of HIV-1 (see Table 2) on CEM-SS cells (cell lines of the lymphocytic lineage) strongly infected with HIV-1 LAI as described by Moog et al. (Antiviral Research (1994), 24, 275-288). The” for “The”
as §2

[2] = cytotoxicity on non-infected cells (MTT test); assay type: cell-based; settings: human; Table 2; non-infected CEM-SS cells, MTT, 5 days
Description: (§3) In parallel experiments, the cytotoxicity of the molecules was measured on non-infected cells, after an incubation of 5 days in the presence of these molecules, by using a […] titration (MTT test) based on the ability of the mitochondrial dehydrogenases of the living cells to reduce 3-(4,5-dimethylthiazol-2-yl)-2,5-diphenyltetrazolium bromide in formazan (Mosmann et al. J. Immunol. Methods ([…]), 65, 55-63). The concentration cytotoxic at 50% (CC50) is the concentration at which the DO540 has been reduced to half and is calculated by using the program mentioned above.

CEM-SS cells = experiment: cytotoxicity on non-infected cells (MTT test); assay type: cell-based; settings: MTT, 5 days
Description: as §3

IT of recombinant HIV-1 = biological target: T1, IT of recombinant HIV-1 (Human immunodeficiency virus type 1 group M subtype B, UniProt P03369); experiment: inhibition of the inverse transcriptase of recombinant HIV-1; assay type: biochemical
T1 construct: purify the IT enzyme of the recombinant HIV-1; made in house; host or cells: yeast cells transformed with the pAB 24/IT-4 vector
Description: Yeast cells transformed with the pAB 24/IT-4 vector were used to purify the IT enzyme of the recombinant HIV-1 as described by Sallafranque-Andreola et al. (1989 Eur. J. Biochem. 184, 364-374).
Incubation was carried out at 37° C. for 10 minutes in the presence of various matrix-primers.
a) Poly C-oligo dG: the reaction mixture contained a final volume of 0.05 ml, Tris-HCl 50 mM pH 8.0, MgCl2 5 mM, dithiothreitol 4 mM, 0.48 A260 /ml of poly C-oligo dG (5:1), 1.0 μCi of [^3 H]dGTP (28 Ci/mmole), dGTP 2 μM, KCl 80 mM, 1 μg of bovine serum albumin and IT 20-50 nM.
b) Poly A-oligo dT: the same conditions as in a), except that 0.48 A260 /ml of poly A-oligo dT (5:1), 0.5 μCi of [^3 H]dTTP (46 Ci/mmole), dTTP 20 μM were used.
The reactions were stopped by adding in the cold 1 ml of 10% trichloroacetic acid plus sodium pyrophosphate 0.1 M. The precipitates were filtered through nitrocellulose membranes, washed with 2% trichloroacetic acid, dried and counted in a PPO/POPOP/toluene scintillation mixture.
All the compounds were dissolved in dimethyl#sulphoxide (DMSO). The test samples were prepared in the presence of the same final concentration of DMSO. IC50 is the concentration required to inhibit the activity of the IT of the recombinant HIV-1 by 50%.

isolated virion HIV-1LAI = experiment: infectivity of the isolated virion after treatment with inhibitors (HT4LacZ cells); assay type: cell-based
Description: H9 cells chronically infected with HIV-1LAI (10^8 /ml) were cocultivated with MT4 cells (10^8 /ml) for 48 hours in an RMPI medium supplemented by 10% of calf foetal serum (CFS). The cells were then removed by centrifugation and then the supernatant liquid was filtered (0.45 μm) to remove residual cells and cell debris.
After having been incubated with the various inhibitors, the viral supernatants (200 μl) were deposited in the filtering part of a VectaSpin tube (WHATMAN) fitted with an ANAPORE membrane of porosity 0.02 μm. For 10 minutes they were subjected to centrifugation, the acceleration of which reached 6000 g at the filtering membrane. The viral residuums thereby obtained (10-15 μl ) were washed 3 times under the same conditions with 500 μl of RPMI then restored to their initial volumes with RPMI containing 10% of CFS.
The HT4LacZ-1 cells were kept in a DMEM medium (glucose 4.5 g/l) supplemented with 10% of calf foetal serum in the presence of Gentamycin (50 mg/l). These cells stemmed from Hela cells in which had been cloned, on the one hand the gene coding for the human CD4 so as to render them susceptible to infection by the HIV (Chesebro and Wehrly, 1988, J. Virol., 62, 3779-3788), and on the other hand the gene for β-Galactosidase which, placed under the dependent of the LTR of the HIV-1 served as a marker for the viral infection (Rocancourt et al. (1990) J. Virol. 1990 64-6, 2660-2688). When the virus infects such cells after its integration into the cellular genome, the production of the regulatory protein TAT activates the LTR of the HIV. The result is an activation of the gene of β-Galactosidase which leads to its production in the intracellular medium and more particularly in the nucleus. It is this protein that serves as a marker of the infection.
The evening of day 0, the HT4LacZ-1 cells were diluted at the rate of 75000 cells per ml of medium. 100 μl of this suspension was then distributed over a flat bottomed plate with 96 wells and was cultivated overnight at 37° C. (5% of CO2).
The morning of day 1, the supernatant liquid was removed by aspiration. Each well was then complemented with 200 μl of the viral supernatant dilutions to be tested. Each dilution was made in a DMEM medium (glucose 4.5 g/l) supplemented with 10% of CFS. The plates were then placed in an environment at 37° C. in the presence of 5% of CO2.
After 48 hours of culture, the supernatant liquid was aspirated, then each well was washed 3 times in PBS before being complemented with 200 μl of developing buffer (Tris-HCl 50 mM pH=8.5, ONPG 5 mg/ml β-mercapto-ethanol 7 μl/ml Triton×100 0.05%). After 4 hours of incubation at 37° C., the optical density of each well was measured.
The concentration of each of the inhibitors of the IT of the HIV-1 was adjusted to 50 mM in DMSO. The later dilutions were carried out on RPMI 1640. 2 μl of suitable dilutions of each of these inhibitors were added to 198 μl of a freshly unfrozen viral suspension. After 3 hours of incubation at ambient temperature, these suspensions were filtered on 0.02 μ VecraSpin tubes, then washed 3 times with 500 μl of RPMI 1640. The viral residuums were then adjusted to 200 μL with the culture medium (RPMI-10% CFS), then tested with regard to their infectivity on HT4LacZ cells.

| SMILES | SI (selectivity index) (HIV-1 LAI) | IC50 [1] | SI (selectivity index) [1] | CC50 at 120 h [2] | CC50 (CEM-SS cells; Table 3, non-infected cells) | IC50 (IT of recombinant HIV-1) | activity at 1 µM (isolated virion HIV-1LAI; Human immunodeficiency virus 1, 1 μM inhibitor, 3 h, 100 TCID50, compared with viral supernatant subjected to same treatments, mean of 1 to 4 experiments, read-out: Activity of the isolated virions after treatment) | activity at 10 µM (isolated virion HIV-1LAI; Human immunodeficiency virus 1, 10 μM inhibitor, 3 h, 100 TCID50, compared with viral supernatant subjected to same treatments, mean of 1 to 4 experiments, read-out: Activity of the isolated virions after treatment) | activity on the isolated virion (in words) (isolated virion HIV-1LAI; isolated virion) | IC50 (HIV-1 LAI) | IC50 (IT of recombinant HIV-1; read-out: IC50, inhibition of the inverse transcriptase, Table 5, IT of recombinant HIV-1) | CC50 (CEM-SS cells; Table 2, non-infected CEM-SS cells) |
| --- | --- | --- | --- | --- | --- | --- | --- | --- | --- | --- | --- | --- |
| CCc1cnc(O)c([N+](=O)[O-])c1Sc1cc(C)cc(C)c1 [Compound 7b, 5-ethyl-3-nitro-4-(3', 5'-dimethylphenyl)thio-pyridin-2(1H)-one] | > 111 | 6.7 µM | > 1 | > 10 µM | > 10 µM | – | – | – | – | – | – | – |
| Cc1c(Sc2ccccc2)n(COCCO)c(=O)[nH]c1=O [HEPT, 1-[(2-hydroxyethoxy)methyl]-6-(phenylthio)thymine] | – | – | – | – | – | > 6 µM | 121% | 141% | totally inactive | – | – | – |
| Cc1c(Sc2ccccc2)n(COCc2ccccc2)c(=O)[nH]c1=O [BPT, 1-benzyloxymethyl-6-(phenylthio)thymine, reference compound] | – | – | – | – | – | 0.4 µM | – | – | – | – | – | – |
| CCc1c(Sc2cc(C)cc(C)c2)cc(=O)[nH]c1C [Compound 16, 5-ethyl-6-methyl-4-(3', 5'-dimethylphenyl)thio-pyridin-2(1H)-one] | > 20 | – | – | > 10 µM | – | 0.4 µM | – | – | – | 0.5 µM | – | – |
| CCC(=O)Nc1c(Sc2cc(C)cc(C)c2)c(C)c[nH]c1=O [Compound 11c, 5-methyl-3-propionamido-4-(3', 5'-dimethylphenyl)thio-pyridin-2(1H)-one] | > 2 | – | – | > 100 µM | – | > 4 µM | – | – | – | 41.4 µM | – | – |
| Cc1cc(C)cc(Sc2c(N)c(O)nc3ccccc23)c1 [Compound 8f, 3-amino-4-(3', 5'-dimethylphenyl)-thio-quinoline-2(1H)-one] | > 36 | 6.6 µM | > 1.5 | > 9 µM | 8.2 µM | – | – | – | – | 0.25 µM | – | – |
| CC(=O)Nc1c(Sc2cc(C)cc(C)c2)c(C)c[nH]c1=O [Compound 11b, 3-acetamido-5-methyl-4-(3', 5'-dimethylphenyl)thio-pyridin-2(1H)-one] | > 1492 | > 100 µM | – | > 100 µM | > 100 µM | > 4 µM | – | – | – | 0.067 µM | – | – |
| Cc1cc(C)cc(Sc2c(C)cnc(O)c2N)c1 [Compound 8a, 3-amino-5-methyl-4-(3', 5'-dimethylphenyl)-thio-pyridin-2(1H)-one] | > 1000 | > 10 µM | – | > 10 µM | > 10 µM | 0.1 µM | – | – | – | 0.01 µM | – | – |
| Cc1cccc(Sc2c(C)c[nH]c(=O)c2[N+](=O)[O-])c1 [Compound 7e, 5-methyl-3-nitro-4-(3'-methylphenyl)thio-pyridin-2(1H)-one] | – | – | – | > 10 µM | – | > 10 µM | – | – | – | – | – | – |
| Cc1cccc(Sc2c(C)c[nH]c(=O)c2N)c1 [Compound 8e] | > 55 | 41.5 µM | > 1 | 78 µM | – | – | – | – | – | 1.4 µM | > 4 µM | – |
| CCc1cnc(O)c(N)c1Sc1cc(C)cc(C)c1 [Compound 8b, 3-amino-5-ethyl-4-(3', 5'-dimethylphenyl)thio-pyridin-2(1H)-one] | > 1000 | 6.7 µM | > 1 | > 10 µM | > 10 µM | – | – | – | – | 0.01 µM | – | – |
| Cc1cc(C)cc(Sc2c(C)cnc(O)c2[N+](=O)[O-])c1 [Compound 7a, 5-methyl-3-nitro-4-(3', 5'-dimethylphenyl)thiopyridin-2(1H)-one] | > 83 | > 10 µM | – | > 10 µM | > 10 µM | > 10 µM | – | – | – | 0.12 µM | – | – |
| CCc1c(C)nc(O)c(NC(C)=O)c1Sc1cc(C)cc(C)c1 [Compound 11g, 3-acetamido-5-ethyl-6-methyl-4-(3', 5'-dimethylphenyl)thio-pyridin-2(1H)-one] | > 1600 | 4.3 µM | > 23 | > 80 µM | > 100 µM | – | – | – | – | 0.05 µM | – | – |
| Cc1cc(C)cc(Sc2c([N+](=O)[O-])c(O)nc3ccccc23)c1 [Compound 7f, 3-nitro-4-(3', 5'-dimethylphenyl)-thiopuinoline-2(1H)-one] | > 26 | > 10 µM | – | – | > 10 µM | – | – | – | – | 3.8 µM | – | > 100 µM |
